{"source": "paper PMC9572452", "about": "“Inhibition of α-Glucosidase and Pancreatic Lipase Properties of Mitragyna speciosa (Korth.) Havil. (Kratom) Leaves” (Nutrients, 2022)", "key": {"pancreatic lipase": {"target": "T1, pancreatic lipase (Sus scrofa, UniProt P00591)", "T1 construct": "purchased Sigma-Aldrich", "T1 sequence (P00591 1-450)": "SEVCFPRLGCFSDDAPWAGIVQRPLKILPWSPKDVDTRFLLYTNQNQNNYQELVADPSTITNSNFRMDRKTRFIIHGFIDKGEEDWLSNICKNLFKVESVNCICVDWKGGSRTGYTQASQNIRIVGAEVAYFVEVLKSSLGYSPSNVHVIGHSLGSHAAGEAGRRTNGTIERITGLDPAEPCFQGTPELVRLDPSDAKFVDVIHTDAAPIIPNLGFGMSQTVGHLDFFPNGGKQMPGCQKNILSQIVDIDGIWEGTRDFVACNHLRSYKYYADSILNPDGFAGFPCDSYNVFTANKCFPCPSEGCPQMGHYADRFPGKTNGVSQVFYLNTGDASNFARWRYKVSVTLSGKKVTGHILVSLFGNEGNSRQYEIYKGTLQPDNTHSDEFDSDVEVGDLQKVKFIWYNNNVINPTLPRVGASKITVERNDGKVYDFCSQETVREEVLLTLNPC", "assay": "pancreatic lipase inhibition and kinetics, 4MUO substrate", "type": "biochemical", "details": "for Pancreatic Lipase mode of inhibition: Lineweaver–Burk plots", "method": "The kinetic parameters (Km and Vmax) of pancreatic lipase were determined using 4-methylumbelliferyl oleate (4MUO) as the substrate (Sigma-Aldrich, St Louis, MO, USA, Lot number BCCF8781). Briefly, 0.5 units of lipase (Sigma-Aldrich, St Louis, MO, USA, Lot number SLCG8579) were incubated in 96-well plates with a total volume of 100 µL (15 mM Tris-HCl buffer, pH 8.0) at 37 °C for 10 min. The reactions were initiated by adding 50 µL of 4MUO ranging from 0 to 5 mM. […] The rates at which substrate concentrations were plotted against 4MUO concentrations and fitted to the Michaelis–Menten equation. […] After 10 min, the reactions were started by adding 0.35 mM 4MUO. The reaction rates were monitored by measuring the release of 4MU from 4MUO. […] The remaining activity of lipase was determined by comparing the rate of each test inhibitor concentration to the vehicle control (ethanol), and IC50 was calculated by plotting the remaining activity of each inhibitor concentration to the log test inhibitor concentration."}, "α-glucosidase [1]": {"target": "T2, α-glucosidase (Saccharomyces cerevisiae, UniProt P53341)", "T2 sequence (P53341 whole entry)": "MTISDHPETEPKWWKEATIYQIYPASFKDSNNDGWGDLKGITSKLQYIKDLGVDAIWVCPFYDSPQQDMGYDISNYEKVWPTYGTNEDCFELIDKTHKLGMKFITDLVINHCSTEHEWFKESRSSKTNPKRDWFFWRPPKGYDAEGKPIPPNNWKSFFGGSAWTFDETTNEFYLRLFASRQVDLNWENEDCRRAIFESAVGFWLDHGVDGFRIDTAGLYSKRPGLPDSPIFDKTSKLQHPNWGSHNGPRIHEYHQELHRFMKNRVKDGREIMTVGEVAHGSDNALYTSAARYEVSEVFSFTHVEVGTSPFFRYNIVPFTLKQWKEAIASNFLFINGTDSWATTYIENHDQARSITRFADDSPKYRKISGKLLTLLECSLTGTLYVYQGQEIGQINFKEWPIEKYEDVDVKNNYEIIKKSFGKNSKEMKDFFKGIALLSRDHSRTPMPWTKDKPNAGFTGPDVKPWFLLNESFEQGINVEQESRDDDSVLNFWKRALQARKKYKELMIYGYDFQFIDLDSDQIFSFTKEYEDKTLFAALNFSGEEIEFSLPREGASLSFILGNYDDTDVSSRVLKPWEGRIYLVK", "assay": "α-glucosidase inhibition and kinetics, pNPG substrate", "type": "biochemical", "details": "Lineweaver–Burk plots", "method": "The assay was performed as described previously with some modifications. The kinetic parameters (Michaelis–Menten constant; Km and maximum velocity; Vmax) of α-glucosidase were determined by using p-nitrophenol-α-D-glucopyranoside (pNPG) as a substrate. Briefly, 0.1 unit of α-glucosidase (Sigma-Aldrich, St Louis, MO, USA) were incubated at 37 °C with 100 µL of total reaction. After 10 min, the reactions were started by adding 50 µL pNPG (Sigma-Aldrich, St Louis, MO, USA, lot number 3698310) ranging from 0 to 15 mM, and the p-nitrophenol product was measured at 405 nm using a microplate reader (Multiskan SkyHigh, Thermo Scientific, Göteborg, Sweden). The substrate concentration rates were plotted against pNPG concentrations and fitted to the Michaelis–Menten equation.\nThe IC50 was determined by comparing the rate of each test inhibitor concentration to that of the vehicle control (ethanol), and the IC50 was calculated by plotting the remaining activity of each inhibitor concentration to the log test inhibitor concentration. […] After co-incubation with each inhibitor for 5 min at 37 °C, the reactions were initiated by adding the p-NPG substrate (0–15 mM). The inhibition constant (Ki) values were determined from Lineweaver–Burk Plots."}, "α-glucosidase [2]": {"target": "T2, α-glucosidase", "assay": "combination of kratom extracts or mitragynine with acarbose on α-glucosidase", "type": "biochemical", "method": "After 10 min, the residual reactions were started by the addition of 50 µL of 0.3 mM pNPG. The reactions were left to proceed for 10 min. The absorption at 405 nm was then measured using a microplate reader, and IC50 values were calculated by GraphPad Prism version 9.3.1."}, "μ-opioid receptors": {"tested_on": "μ-opioid receptors", "set-up": "method as in PMID 27192616", "details": "cited from earlier work"}, "lipase": {"tested_on": "lipase", "set-up": "method as in PMID 29292744", "details": "therapeutic oral dose of 120 mg three times per day; cited from earlier work"}}, "note": "Values joined by “and” are separate entries in the source; they are usually repeats but may differ in a detail not shown here. Equal entries are not always repeated. “Also recorded” adds a separate entry of the source.", "data": [{"smiles": "CC[C@@H]1CN2CCc3c([nH]c4cccc(OC)c34)[C@@H]2C[C@@H]1/C(=C\\OC)C(=O)OC", "note": "[Mitragynine]", "values": [{"measurement": "pancreatic lipase IC50, fold higher than that of orlistat", "setting": "pancreatic lipase", "result": 30, "unit": "fold"}, {"measurement": "IC50", "setting": "pancreatic lipase; 0.35 mM 4MUO, 37 °C, mean ± SD, n = 3", "result": "24.9 µM and 24.7 µM"}, {"measurement": "Pancreatic Lipase mode of inhibition", "setting": "pancreatic lipase", "result": "competitive"}, {"measurement": "Pancreatic Lipase mode of inhibition", "setting": "pancreatic lipase; listed as mitragynine", "result": "competitive inhibitors; also recorded: competitive mode"}, {"measurement": "Ki", "setting": "pancreatic lipase; from Lineweaver–Burk plots, 4MUO substrate", "result": 14.9, "unit": "µM"}, {"measurement": "α-Glucosidase mode of inhibition", "setting": "α-glucosidase [1]", "result": "noncompetitive"}, {"measurement": "α-Glucosidase mode of inhibition", "setting": "α-glucosidase [1]; listed as mitragynine", "result": "noncompetitive inhibitor; also recorded: noncompetitive mode"}, {"measurement": "potency of combination with acarbose compared with kratom extract combinations", "setting": "α-glucosidase [2]; mitragynine 100 µM with acarbose", "result": "less potency than that of kratom extracts"}, {"measurement": "IC50 of combination with acarbose compared with kratom extract combinations", "setting": "α-glucosidase [2]; mitragynine 200 and 300 µM with acarbose", "result": "decreased IC50 values compared with that of mixed kratom extracts"}, {"measurement": "interaction with acarbose in α-glucosidase inhibition", "setting": "α-glucosidase [2]; mitragynine combined with acarbose", "result": "synergistic interaction; also recorded: synergistic effect"}]}, {"smiles": "CC[C@@H]1CN2CC[C@@]3(O)C(=Nc4cccc(OC)c43)[C@@H]2C[C@@H]1/C(=C\\OC)C(=O)OC", "note": "[7-hydroxymitragynine]", "values": [{"measurement": "analgesic activity, fold higher than that of mitragynine", "setting": "μ-opioid receptors", "result": 16, "unit": "fold"}]}, {"smiles": "C[C@H]1O[C@H](O[C@H]2[C@H](O)[C@@H](O)[C@@H](O[C@H]3[C@H](O)[C@@H](O)C(O)O[C@@H]3CO)O[C@@H]2CO)[C@H](O)[C@@H](O)[C@@H]1N[C@H]1C=C(CO)[C@@H](O)[C@H](O)[C@H]1O", "note": "(stereo partly shown) [Acarbose, reference compound]", "values": [{"measurement": "α-Glucosidase mode of inhibition", "setting": "α-glucosidase [1]", "result": "mixed-type"}, {"measurement": "α-Glucosidase mode of inhibition", "setting": "α-glucosidase [1]; listed as acarbose", "result": "mixed-type inhibition mode"}]}, {"smiles": "CCCCCCCCCCC[C@@H](C[C@@H]1OC(=O)[C@H]1CCCCCC)OC(=O)[C@H](CC(C)C)NC=O", "note": "[Orlistat, reference compound]", "values": [{"measurement": "Pancreatic Lipase mode of inhibition", "setting": "pancreatic lipase", "result": "competitive"}, {"measurement": "Pancreatic Lipase mode of inhibition", "setting": "pancreatic lipase; listed as orlistat", "result": "competitive inhibitors; also recorded: competitive mode"}, {"measurement": "reduction of dietary fat absorption", "setting": "lipase", "result": "one-third"}]}]}
